Data as given in patent US20260176302A1, “SARS-CoV-2 Binding Polypeptide” (Leyden Laboratories B.V., priority 2022, published 2026).

System: SARS-CoV-2 B.1.351 variant
Format: in vivo, Mouse (Mus musculus)

IINPRGDGTRYAQKFQG [SEQ ID NO: 082]
survival time vs control group (log-rank test) ([…], control median survival 7 days): significant improvement in survival time | clinical signs (score 0-4) (mouse, in vivo): No clinical signs | survival proportion at day 21 (mouse, in vivo): 100% | change in bodyweight (AUC) / weight loss vs control group (mouse, in vivo, listed as test polypeptide): significant reduction in weight loss
